Source: ChEMBL document CHEMBL1201862, “PubChem BioAssay data set” (2004)
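Compound exposure: 48 hours, 5 concentrations, 96-well plates. GI50: concentration for 50% inhibition of growth.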 Activity calls are given as the source filed them. Cut-off read from the data, not from the text of the source: active = GI50 up to about 1.1 µM and inactive = higher.

Key:
Assay in all cases: growth of human tumour cells (NCI), 48 h
CAKI-1 = system: CAKI-1
786-0 = system: 786-0
A498 = system: A498
EKVX = system: EKVX
UO-31 = system: UO-31
SK-MEL-5 = system: SK-MEL-5
HOP-62 = system: HOP-62
SNB-19 = system: SNB-19
SF-295 = system: SF-295
DMS-273 = system: DMS-273
UACC-62 = system: UACC-62
NCI-H522 = system: NCI-H522
OVCAR-4 = system: OVCAR-4
COLO 205 = system: COLO 205
ACHN = system: ACHN
HCC 2998 = system: HCC 2998
DMS-114 = system: DMS-114
RXF 393 = system: RXF 393

Measured: GI50

Clc1ccc(Cl)c2[s+]snc12
inactive: CAKI-1 > 100 µM | 786-0 > 40.9 µM | A498 > 100 µM | EKVX > 100 µM | UO-31 > 100 µM | SK-MEL-5 76 µM | HOP-62 > 85.3 µM | SNB-19 > 93.5 µM | SF-295 > 76.6 µM | DMS-273 27 µM | UACC-62 43.4 µM | NCI-H522 18.1 µM | OVCAR-4 > 100 µM | COLO 205 > 43.1 µM | ACHN > 79.1 µM | HCC 2998 > 100 µM | DMS-114 24.9 µM

CCOC(=O)NC(=O)c1cn(CCN(CCO)C(=O)NCCCCCCNC(=O)N(CCO)CCn2cc(C(=O)NC(=O)OCC)c(=O)[nH]c2=O)c(=O)[nH]c1=O
inactive: CAKI-1 > 100 µM | A498 > 100 µM | EKVX > 100 µM | UO-31 > 100 µM | SK-MEL-5 > 100 µM | HOP-62 > 100 µM | SNB-19 > 100 µM | SF-295 > 100 µM | DMS-273 > 100 µM | UACC-62 > 100 µM | NCI-H522 > 100 µM | OVCAR-4 > 100 µM | RXF 393 > 100 µM | COLO 205 > 100 µM | HCC 2998 > 100 µM | DMS-114 > 100 µM

O=[PH](O)c1cccs1
inactive: CAKI-1 > 100 µM | A498 > 100 µM | EKVX > 100 µM | UO-31 > 100 µM | SK-MEL-5 > 100 µM | SNB-19 > 100 µM | SF-295 > 100 µM | DMS-273 > 100 µM | UACC-62 > 100 µM | NCI-H522 > 100 µM | RXF 393 > 100 µM | COLO 205 > 100 µM | ACHN > 100 µM | DMS-114 > 100 µM

O=C1CCCCCCCCCCC1CN1CCCCC1 (stereo not drawn)
inactive: 786-0 > 100 µM | A498 > 100 µM | EKVX > 100 µM | UO-31 39 µM | SK-MEL-5 15 µM | HOP-62 > 100 µM | SNB-19 > 100 µM | SF-295 46.9 µM | DMS-273 > 100 µM | UACC-62 88.9 µM | NCI-H522 > 100 µM | OVCAR-4 > 100 µM | COLO 205 41.4 µM | ACHN > 100 µM | HCC 2998 > 100 µM | DMS-114 60.5 µM

O=C(Cn1ccnc1[N+](=O)[O-])c1ccc(F)cc1
inactive: CAKI-1 > 100 µM | 786-0 > 100 µM | A498 > 100 µM | EKVX > 100 µM | UO-31 > 100 µM | SK-MEL-5 > 100 µM | HOP-62 > 100 µM | SNB-19 > 100 µM | SF-295 > 100 µM | DMS-273 > 100 µM | UACC-62 > 100 µM | NCI-H522 > 100 µM | OVCAR-4 > 100 µM | RXF 393 > 100 µM | COLO 205 > 100 µM | ACHN > 100 µM | DMS-114 > 100 µM

COC1(OC)CC2C(=O)N(Cc3ccccc3)C1C(S(=O)(=O)c1ccccc1)C2C(C)S(=O)(=O)c1ccccc1 (stereo not drawn)
inactive: CAKI-1 > 100 µM | 786-0 > 100 µM | EKVX 85.5 µM | SK-MEL-5 > 100 µM | HOP-62 > 100 µM | SNB-19 > 100 µM | SF-295 > 100 µM | DMS-273 > 100 µM | UACC-62 > 100 µM | NCI-H522 > 100 µM | OVCAR-4 > 100 µM | RXF 393 > 100 µM | COLO 205 > 100 µM | ACHN > 100 µM | HCC 2998 > 100 µM | DMS-114 75.5 µM

COc1ccc(C(=O)Cc2ccc(Br)cc2)cc1OC
inactive: CAKI-1 > 100 µM | A498 40.4 µM | EKVX > 100 µM | UO-31 > 100 µM | SK-MEL-5 > 100 µM | HOP-62 79.1 µM | SNB-19 > 100 µM | SF-295 40 µM | DMS-273 > 100 µM | UACC-62 > 100 µM | NCI-H522 79.3 µM | OVCAR-4 > 100 µM | RXF 393 72.8 µM | ACHN > 100 µM | HCC 2998 > 100 µM | DMS-114 > 100 µM

CC(=O)CC(=O)ON(C)C(=O)Cc1ccccc1
inactive: CAKI-1 > 100 µM | 786-0 > 100 µM | UO-31 > 100 µM | SK-MEL-5 > 100 µM | HOP-62 > 100 µM | SNB-19 > 100 µM | SF-295 > 100 µM | DMS-273 > 100 µM | UACC-62 > 100 µM | NCI-H522 > 100 µM | OVCAR-4 > 100 µM | RXF 393 > 100 µM | COLO 205 > 100 µM | ACHN > 100 µM | HCC 2998 > 100 µM | DMS-114 > 100 µM
